{"source": "patent US20250339409A1", "about": "“USES OF PAN BET INHIBITORS” (VYNE THERAPEUTICS INC., priority 2021, published 2025)", "test_system": "imiquimod-induced psoriasis", "test": "Imiquimod-induced psoriasis (Th17 inflammation) model in mice, topical treatment once daily D7-D13: PASI, modified PASI, body weight, use of enrichment, TEWL", "type": "in vivo", "parameters": "key to Mean score use enrichment: 0 = no use of dental rolls to 4 = use of all 4; key to PASI Mean score values: sum of erythema, induration, peeling scores, each 0-3 (0 = none)", "method": "Thirty-six (36) female Balb/c mice are weighed and randomly divided into 9 groups (n=4) according to body weight on D1. For mice of native group 1 and tolerance groups 8 and 9, no induction of psoriasis is performed between D1 and D13. Psoriasis is induced in groups 2 to 7 by once daily topical application for 13 days (from day 1 to day 13) of 65 mg of Aldara™ cream (5.0% imiquimod) onto the shaved and epilated back of mice. Before the first treatment, a second randomization of mice of the 6 imiquimod-induced psoriasis groups is performed according to the severity of psoriasis (PASI), and also the body weight of mice. Starting on day 7 and until day 13, 100 mg of test formulations […] and 65 mg of vehicle (groups 1 and […]) are topically administered once daily for 7 consecutive days onto the shaved back skin of mice. Several measurements are taken during treatment period from day 7 to day 14: psoriasis index (PASI), body weight, use of enrichment and mortality. At the end of treatment period, TEWL is assessed, and blood and skin samples are collected. Histological analysis of skin samples is used for microscopic scoring of psoriasis and the determination of the thickness of parakeratosis and epidermis and blood analysis is used for assessing the level of proinflammatory biomarkers (cytokines assays). The effect of treatment of psoriasis induced mice with BETi formulations at the four dose levels are compared with Dermoval® cream containing 0.05% clobetasol propionate (reference) and vehicle (positive control) and also with healthy mice treated with vehicle (negative control).\nPASI scoring takes into account the following 3 parameters: the presence of erythema on the skin, induration of the skin (thickening) and peeling of the skin at the area of the induction of psoriasis.\nThe presence of erythema on the skin at the area of induction of psoriasis with the following scoring grid: • 0=no or no more erythema on the skin, • 1=weak erythema on the skin, • 2=moderate erythema on the skin, • 3=important erythema on the skin.\nThe presence of induration of the skin at the area of induction of psoriasis with the following scoring grid: • 0=no or no more induration of the skin, • 1=weak induration of the skin, • 2=moderate induration of the skin, • 3=important induration of the skin.\nThe presence of peeling of the skin at the area of induction of psoriasis with the following scoring grid: • 0=no or no more dryness/peeling of the skin, • 1=weak dryness/peeling of the skin, • 2=moderate dryness/peeling of the skin, • 3=important dryness/peeling of the skin.\nThe sum of the mean scores of these 3 parameters result in the mean PASI score.\nOne of the issues with a steroid is that it causes skin thinning and continues to have an effect on no longer inflamed skin and the model set up and measurements above are not designed to reflect this negative effect. Therefore, a modified PASI (mPASI) is calculated in the same the manner as mean PASI score but excludes the scoring for induration (thickening of the skin).\nMice are weighed three times during the week of D1 to D7, and then daily during the week of D7 to D13, as well as on the day D14 when they are sacrificed. It should be noted that a characteristic body weight loss of mice is observed after the start of the induction of psoriasis, mainly during the first days following it. The body weight loss can reach between 10 to 15%.\nFor the duration of the experiment, dental rolls are used as enrichment and placed in each cage and replaced twice. Between D1 and D7, the number of dental rolls used by animals are determined twice in the morning, and are determined daily during D7 to D14, at the time of PASI or the tolerance assessment. The use of dental rolls is scored from 0=no use of dental rolls to 4=use of the 4 dental rolls. In the case where only half of a dental roll is used, a score of 0.5 is assigned. […]", "data": [{"smiles": "Cn1cc(-c2cccc(O)c2Oc2ccccc2)c2cc[nH]c2c1=O", "note": "[BETi1]", "values": [{"measurement": "Change in Modified PASI Mean score values", "setting": "Table 1C, imiquimod-induced mice, treatment day 0, listed as BETi1 0.001%", "result": 4.25}, {"measurement": "Change in Modified PASI Mean score values", "setting": "Table 1C, imiquimod-induced mice, treatment day 0, listed as BETi1 0.01%", "result": 4.375}, {"measurement": "Change in Modified PASI Mean score values", "setting": "Table 1C, imiquimod-induced mice, treatment day 0, listed as BETi1 0.1%", "result": 4.375}, {"measurement": "Change in Modified PASI Mean score values", "setting": "Table 1C, imiquimod-induced mice, treatment day 1, listed as BETi1 0.001%", "result": 5.375}, {"measurement": "Change in Modified PASI Mean score values", "setting": "Table 1C, imiquimod-induced mice, treatment day 1, listed as BETi1 0.01%", "result": 4}, {"measurement": "Change in Modified PASI Mean score values", "setting": "Table 1C, imiquimod-induced mice, treatment day 1, listed as BETi1 0.1%", "result": 4.375}, {"measurement": "Change in Modified PASI Mean score values", "setting": "Table 1C, imiquimod-induced mice, treatment day 2, listed as BETi1 0.001%", "result": 4.75}, {"measurement": "Change in Modified PASI Mean score values", "setting": "Table 1C, imiquimod-induced mice, treatment day 2, listed as BETi1 0.01%", "result": 2.875}, {"measurement": "Change in Modified PASI Mean score values", "setting": "Table 1C, imiquimod-induced mice, treatment day 2, listed as BETi1 0.1%", "result": 3.125}, {"measurement": "Change in Modified PASI Mean score values", "setting": "Table 1C, imiquimod-induced mice, treatment day 3, listed as BETi1 0.001%", "result": 4.25}, {"measurement": "Change in Modified PASI Mean score values", "setting": "Table 1C, imiquimod-induced mice, treatment day 3, listed as BETi1 0.01%", "result": 2.5}, {"measurement": "Change in Modified PASI Mean score values", "setting": "Table 1C, imiquimod-induced mice, treatment day 3, listed as BETi1 0.1%", "result": 2}, {"measurement": "Change in Modified PASI Mean score values", "setting": "Table 1C, imiquimod-induced mice, treatment day 4, listed as BETi1 0.001%", "result": 4}, {"measurement": "Change in Modified PASI Mean score values", "setting": "Table 1C, imiquimod-induced mice, treatment day 4, listed as BETi1 0.01%", "result": 2.125}, {"measurement": "Change in Modified PASI Mean score values", "setting": "Table 1C, imiquimod-induced mice, treatment day 4, listed as BETi1 0.1%", "result": 0.75}, {"measurement": "Change in Modified PASI Mean score values", "setting": "Table 1C, imiquimod-induced mice, treatment day 5, listed as BETi1 0.001%", "result": 3.375}, {"measurement": "Change in Modified PASI Mean score values", "setting": "Table 1C, imiquimod-induced mice, treatment day 5, listed as BETi1 0.01%", "result": 1}, {"measurement": "Change in Modified PASI Mean score values", "setting": "Table 1C, imiquimod-induced mice, treatment day 5, listed as BETi1 0.1%", "result": 0.375}, {"measurement": "Change in Modified PASI Mean score values", "setting": "Table 1C, imiquimod-induced mice, treatment day 6, listed as BETi1 0.001%", "result": 3}, {"measurement": "Change in Modified PASI Mean score values", "setting": "Table 1C, imiquimod-induced mice, treatment day 6, listed as BETi1 0.01%", "result": 1.25}, {"measurement": "Change in Modified PASI Mean score values", "setting": "Table 1C, imiquimod-induced mice, treatment day 6, listed as BETi1 0.1%", "result": 0.25}, {"measurement": "Change in Modified PASI Mean score values", "setting": "Table 1C, imiquimod-induced mice, treatment day 7, listed as BETi1 0.001%", "result": 3}, {"measurement": "Change in Modified PASI Mean score values", "setting": "Table 1C, imiquimod-induced mice, treatment day 7, listed as BETi1 0.01%", "result": 1}, {"measurement": "Change in Modified PASI Mean score values", "setting": "Table 1C, imiquimod-induced mice, treatment day 7, listed as BETi1 0.1%", "result": 0.25}, {"measurement": "Change in Modified PASI Mean score values", "setting": "Table 1D, relative to day 0 = 100, treatment day 0", "result": 100}, {"measurement": "Change in Modified PASI Mean score values", "setting": "Table 1D, relative to day 0 = 100, treatment day 1, listed as BETi1 0.001%", "result": 126.47}, {"measurement": "Change in Modified PASI Mean score values", "setting": "Table 1D, relative to day 0 = 100, treatment day 1, listed as BETi1 0.01%", "result": 91.43}, {"measurement": "Change in Modified PASI Mean score values", "setting": "Table 1D, relative to day 0 = 100, treatment day 1, listed as BETi1 0.1%", "result": 100}, {"measurement": "Change in Modified PASI Mean score values", "setting": "Table 1D, relative to day 0 = 100, treatment day 2, listed as BETi1 0.001%", "result": 111.76}, {"measurement": "Change in Modified PASI Mean score values", "setting": "Table 1D, relative to day 0 = 100, treatment day 2, listed as BETi1 0.01%", "result": 65.71}, {"measurement": "Change in Modified PASI Mean score values", "setting": "Table 1D, relative to day 0 = 100, treatment day 2, listed as BETi1 0.1%", "result": 71.43}, {"measurement": "Change in Modified PASI Mean score values", "setting": "Table 1D, relative to day 0 = 100, treatment day 3, listed as BETi1 0.001%", "result": 100}, {"measurement": "Change in Modified PASI Mean score values", "setting": "Table 1D, relative to day 0 = 100, treatment day 3, listed as BETi1 0.01%", "result": 57.14}, {"measurement": "Change in Modified PASI Mean score values", "setting": "Table 1D, relative to day 0 = 100, treatment day 3, listed as BETi1 0.1%", "result": 45.72}, {"measurement": "Change in Modified PASI Mean score values", "setting": "Table 1D, relative to day 0 = 100, treatment day 4, listed as BETi1 0.001%", "result": 94.12}, {"measurement": "Change in Modified PASI Mean score values", "setting": "Table 1D, relative to day 0 = 100, treatment day 4, listed as BETi1 0.01%", "result": 48.57}, {"measurement": "Change in Modified PASI Mean score values", "setting": "Table 1D, relative to day 0 = 100, treatment day 4, listed as BETi1 0.1%", "result": 17.142}, {"measurement": "Change in Modified PASI Mean score values", "setting": "Table 1D, relative to day 0 = 100, treatment day 5, listed as BETi1 0.001%", "result": 79.41}, {"measurement": "Change in Modified PASI Mean score values", "setting": "Table 1D, relative to day 0 = 100, treatment day 5, listed as BETi1 0.01%", "result": 22.86}, {"measurement": "Change in Modified PASI Mean score values", "setting": "Table 1D, relative to day 0 = 100, treatment day 5, listed as BETi1 0.1%", "result": 8.57}, {"measurement": "Change in Modified PASI Mean score values", "setting": "Table 1D, relative to day 0 = 100, treatment day 6, listed as BETi1 0.001%", "result": 70.59}, {"measurement": "Change in Modified PASI Mean score values", "setting": "Table 1D, relative to day 0 = 100, treatment day 6, listed as BETi1 0.01%", "result": 28.57}, {"measurement": "Change in Modified PASI Mean score values", "setting": "Table 1D, relative to day 0 = 100, treatment day 6, listed as BETi1 0.1%", "result": 5.71}, {"measurement": "Change in Modified PASI Mean score values", "setting": "Table 1D, relative to day 0 = 100, treatment day 7, listed as BETi1 0.001%", "result": 70.59}, {"measurement": "Change in Modified PASI Mean score values", "setting": "Table 1D, relative to day 0 = 100, treatment day 7, listed as BETi1 0.01%", "result": 22.86}, {"measurement": "Change in Modified PASI Mean score values", "setting": "Table 1D, relative to day 0 = 100, treatment day 7, listed as BETi1 0.1%", "result": 5.71}, {"measurement": "Mean score use enrichment", "setting": "imiquimod-induced mice, Before D 1, listed as BETi 0.001%", "result": 4.00}, {"measurement": "Mean score use enrichment", "setting": "imiquimod-induced mice, Before D 1, listed as BETi 0.01%", "result": 4.00}, {"measurement": "Mean score use enrichment", "setting": "imiquimod-induced mice, Before D 1, listed as BETi 0.1%", "result": 4.00}, {"measurement": "Mean score use enrichment", "setting": "imiquimod-induced mice, Before D 1, listed as BETi 1.0%", "result": 3.75}, {"measurement": "Modified PASI Mean score values", "setting": "imiquimod-induced mice, D 1", "result": 0.00}, {"measurement": "PASI Mean score values", "setting": "imiquimod-induced mice, D 1", "result": 0.00}, {"measurement": "Mean score use enrichment", "setting": "imiquimod-induced mice, D 1-D 8, listed as BETi 0.001%", "result": 1.79}, {"measurement": "Mean score use enrichment", "setting": "imiquimod-induced mice, D 1-D 8, listed as BETi 0.01%", "result": 1.61}, {"measurement": "Mean score use enrichment", "setting": "imiquimod-induced mice, D 1-D 8, listed as BETi 0.1%", "result": 1.54}, {"measurement": "Mean score use enrichment", "setting": "imiquimod-induced mice, D 1-D 8, listed as BETi 1.0%", "result": 2.56}, {"measurement": "Mean body weights", "setting": "imiquimod-induced mice, D 1, listed as BETi1 1.0%", "result": 18.11}]}]}
